Measurements published in patent US20160046604A1, “HETEROARYL SUBSTITUTED INDAZOLES” (BAYER PHARMA AKTIENGESELLSCHAFT, priority 2013, published 2016).
Where two headings read alike, the source gives them in different places.

Legend:
[1] = molecular target: T1, catalytic domain of human Bub1 (amino acids 704-1085) (Homo sapiens, UniProt O43683); assay: Bub1 kinase assay (TR-FRET); format: biochemical
T1 construct: catalytic domain of human Bub1 (amino acids 704-1085); His6 (N); made in house; host or cells: Hi5 insect cells
Experimental: To this end, 100-fold concentrated compound solutions (in DMSO) were previously prepared by serial dilution (1:3.4) of 2 mM stocks in a clear low volume 384-well source microtiter plate (Greiner Bio-One, Frickenhausen, Germany), from which 50 nL of compounds were transferred into a black low volume test microtiter plate from the same supplier. […] The resulting mixture (5 μL final volume) was incubated at 22° C. during 60 min., and the reaction was stopped by the addition of 5 μL of an aqueous EDTA-solution (50 mM EDTA, in 100 mM HEPES pH 7.5 and 0.2% (w/v) bovine serum albumin) which also contained the TR-FRET detection reagents (0.2 μM streptavidin-XL665 [Cisbio Bioassays, Codolet, France] and 1 nM anti-phoshoSerine antibody [Merck Millipore, cat. #35-001] and 0.4 nM LANCE EU-W1024 labeled anti-mouse IgG antibody [Perkin-Elmer, product no. AD0077, alternatively a Terbium-cryptate-labeled anti-mouse IgG antibody from Cisbio Bioassays can be used]). The stopped reaction mixture was further incubated 1 h at 22° C. in order to allow the formation of complexes between peptides and detection reagents. Subsequently, the amount of product was evaluated by measurement of the resonance energy transfer from the Eu-chelate-antibody complex recognizing the Phosphoserine residue to the streptavidin-XL665 bound to the biotin moiety of the peptide. […] IC50 values were calculated by fitting the normalized inhibition data to a 4-parameter logistic equation (Minimum, Maximum, IC50, Hill; Y=Max+(Min−Max)/(1+(X/IC50)Hill)).

[2] = test system: HeLa human cervical tumor cells; assay: Proliferation assay (HeLa cell line); conditions: 96 h, read-out: Biological Assay 2: Proliferation assay (HeLa cell line) median IC50;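 further: crystal violet staining, absorbance at 595 nm, 0.001–10 µM test range, 4-day exposure, 0% is cell number at dosing and 100% untreated growth, IC50 from 4-parameter fit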
Experimental: Cultivated HeLa human cervical tumor cells (cells were ordered from ATCC CCL-2) were plated at a density of 3000 cells/well in a 96-well multititer plates in 200 microL DMEM/HAMS F12 culture medium (Biochrom F4815) supplemented with 10% fetal calf serum. After 24 hours, the cells of one plate (zero-point plate) were stained with crystal violet (see below), while the medium of the other plates was replaced by fresh culture medium (200 microL) containing the test substances in various concentrations (0 microM, as well as in the range of 0.001-10 microM; the final concentration of the solvent dimethyl sulfoxide was 0.5%). The cells were incubated for 4 days in the presence of test substances. Cell proliferation was determined by staining the cells with crystal violet: the cells were fixed by adding 20 microL/measuring point of an 11% glutaric aldehyde solution for 15 minutes at room temperature. After three washing cycles of the fixed cells with water, the plates were dried at room temperature. The cells were stained by adding 100 microL/measuring point of a 0.1% crystal violet solution (pH 3.0). After three washing cycles of the stained cells with water, the plates were dried at room temperature. The dye was dissolved by adding 100 microL/measuring point of a 10% acetic acid solution. Absorption was determined by photometry at a wavelength of 595 nm. The change of cell number, in percent, was calculated by normalization of the measured values to the absorption values of the zero-point plate (=0%) and the absorption of the untreated (0 microM) cells (=100%). The IC50 values were determined by means of a 4 parameter fit.

[3] = TR-FRET, recombinant catalytic domain of human Bub1, ATP 10 μM, peptide substrate 1 μM, 60 min at 22° C., read-out: Biological Assay 1: Bub1 kinase assay median IC50

T1 sequence (O43683 704-1085): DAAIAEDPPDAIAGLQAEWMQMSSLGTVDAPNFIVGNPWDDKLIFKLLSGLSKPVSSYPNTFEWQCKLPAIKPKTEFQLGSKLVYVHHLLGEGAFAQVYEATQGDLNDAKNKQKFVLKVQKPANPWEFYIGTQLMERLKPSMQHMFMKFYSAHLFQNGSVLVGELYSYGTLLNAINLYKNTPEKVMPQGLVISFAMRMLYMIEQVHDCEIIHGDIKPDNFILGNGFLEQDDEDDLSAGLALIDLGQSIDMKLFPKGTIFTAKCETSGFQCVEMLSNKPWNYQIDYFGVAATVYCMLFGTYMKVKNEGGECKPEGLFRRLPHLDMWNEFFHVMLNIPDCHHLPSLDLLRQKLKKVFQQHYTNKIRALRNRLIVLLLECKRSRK

Compound	IC50 [1]	IC50 [2]	IC50 [1, 3]
COc1cnc(-c2nn(Cc3c(Cl)ccnc3Cl)c3ccccc23)nc1Nc1ccncc1 [Example 2-1-1, 2-{1-[(2,4-dichloropyridin-3-yl)methyl]-1H-indazol-3-yl}-5-methoxy-N-(pyridin-4-yl)pyrimidin-4-amine]	8.4 nM	2600 nM	
COc1cnc(-c2nn(Cc3ncc(F)cc3F)c3ccccc23)nc1Nc1ccncc1 [Example 2-1-2, 2-{1-[(3,5-difluoropyridin-2-yl)methyl]-1H-indazol-3-yl}-5-methoxy-N-(pyridin-4-yl)pyrimidin-4-amine]	9 nM	> 10000 nM	
COc1cnc(-c2nn(Cc3c(C)noc3C)c3ccccc23)nc1Nc1ccncc1 [Example 2-1-3, 2-{1-[(3,5-dimethyl-1,2-oxazol-4-yl)methyl]-1H-indazol-3-yl}-5-methoxy-N-(pyridin-4-yl)pyrimidin-4-amine]		> 10000 nM	30 nM
COc1cnc(-c2nn(Cc3cnn(C)c3C)c3ccccc23)nc1Nc1ccncc1 [Example 2-1-4, 2-{1-[(1,5-dimethyl-1H-pyrazol-4-yl)methyl]-1H-indazol-3-yl}-5-methoxy-N-(pyridin-4-yl)pyrimidin-4-amine]		> 10000 nM	42 nM
COc1cnc(-c2nn(Cc3ccc(C(F)(F)F)nc3C)c3ccccc23)nc1Nc1ccncc1 [Example 2-1-5, 5-methoxy-2-(1-{[2-methyl-6-(trifluoromethyl)pyridin-3-yl]methyl}-1H-indazol-3-yl)-N-(pyridin-4-yl)pyrimidin-4-amine]	58 nM	7100 nM	
COc1cnc(-c2nn(Cc3c(C)nnn3C(F)F)c3ccccc23)nc1Nc1ccncc1 [Example 2-1-6, 2-(1-{[1-(difluoromethyl)-4-methyl-1H-1,2,3-triazol-5-yl]methyl}-1H-indazol-3-yl)-5-methoxy-N-(pyridin-4-yl)pyrimidin-4-amine]			150 nM
COc1cnc(-c2nn(Cc3c(C(F)F)nn(C)c3OCC(F)(F)F)c3ccccc23)nc1Nc1ccncc1 [Example 2-1-7, 2-(1-{[3-(difluoromethyl)-1-methyl-5-(2,2,2-trifluoroethoxy)-1H-pyrazol-4-yl]methyl}-1H-indazol-3-yl)-5-methoxy-N-(pyridin-4-yl)pyrimidin-4-amine]	450 nM		
COc1cnc(-c2nn(Cc3c(C(F)(F)F)nnn3C)c3ccccc23)nc1Nc1ccncc1 [Example 2-1-8, 5-methoxy-2-(1-{[1-methyl-4-(trifluoromethyl)-1H-1,2,3-triazol-5-yl]methyl}-1H-indazol-3-yl)-N-(pyridin-4-yl)pyrimidin-4-amine]		> 10000 nM	610 nM
COc1cnc(-c2nn(Cc3c(C)nnn3C(F)F)c3ccccc23)nc1N(Cc1c(C)nnn1C(F)F)c1ccncc1 [Example 2-1-9, N-{[1-(difluoromethyl)-4-methyl-1H-1,2,3-triazol-5-yl]methyl}-2-(1-{[1-(difluoromethyl)-4-methyl-1H-1,2,3-triazol-5-yl]methyl}-1H-indazol-3-yl)-5-methoxy-N-(pyridin-4-yl)pyrimidin-4-amine]			790 nM
COc1cnc(-c2nn(Cc3c(C(F)(F)F)nn(C)c3C(F)F)c3ccccc23)nc1Nc1ccncc1 [Example 2-1-10, 2-(1-{[5-(difluoromethyl)-1-methyl-3-(trifluoromethyl)-1H-pyrazol-4-yl]methyl}-1H-indazol-3-yl)-5-methoxy-N-(pyridin-4-yl)pyrimidin-4-amine]	3200 nM		
COc1cnc(-c2nn(Cc3c(Cl)cnn3C)c3ccccc23)nc1Nc1ccncc1 [Example 2-2-1, 2-{1-[(4-chloro-1-methyl-1H-pyrazol-5-yl)methyl]-1H-indazol-3-yl}-5-methoxy-N-(pyridin-4-yl)pyrimidin-4-amine]		> 10000 nM	8.9 nM
COc1cnc(-c2nn(Cc3nn(C)cc3Cl)c3ccccc23)nc1Nc1ccncc1 [Example 2-2-2, 2-{1-[(4-chloro-1-methyl-1H-pyrazol-3-yl)methyl]-1H-indazol-3-yl}-5-methoxy-N-(pyridin-4-yl)pyrimidin-4-amine]		4400 nM	46 nM
COc1cnc(-c2nn(Cc3nsc(N)n3)c3ccccc23)nc1Nc1ccncc1 [Example 2-2-3, 2-{1-[(5-amino-1,2,4-thiadiazol-3-yl)methyl]-1H-indazol-3-yl}-5-methoxy-N-(pyridin-4-yl)pyrimidin-4-amine]		> 10000 nM	54 nM
COCc1noc(Cn2nc(-c3ncc(OC)c(Nc4ccncc4)n3)c3ccccc32)n1 [Example 2-2-4, 5-methoxy-2-(1-{[3-(methoxymethyl)-1,2,4-oxadiazol-5-yl]methyl}-1H-indazol-3-yl)-N-(pyridin-4-yl)pyrimidin-4-amine]		> 10000 nM	280 nM
CNC(=O)c1nc(Cn2nc(-c3ncc(OC)c(Nc4ccncc4)n3)c3ccccc32)no1 [Example 2-2-5, 3-({3-[5-methoxy-4-(pyridin-4-ylamino)pyrimidin-2-yl]-1H-indazol-1-yl}methyl)-N-methyl-1,2,4-oxadiazole-5-carboxamide]		> 10000 nM	540 nM
COc1cnc(-c2nn(Cc3cn4cccnc4n3)c3ccccc23)nc1Nc1ccncc1 [Example 2-2-6, 2-[1-(imidazo[1,2-a]pyrimidin-2-ylmethyl)-1H-indazol-3-yl]-5-methoxy-N-(pyridin-4-yl)pyrimidin-4-amine]			1600 nM
COc1cnc(-c2nn(Cc3cc(=O)[nH]c(=O)[nH]3)c3ccccc23)nc1Nc1ccncc1 [Example 2-2-7, 6-({3-[5-methoxy-4-(pyridin-4-ylamino)pyrimidin-2-yl]-1H-indazol-1-yl}methyl)pyrimidine-2,4(1H,3H)-dione]	3100 nM	> 10000 nM	
CNC(=O)c1cnccc1Nc1nc(-c2nn(Cc3nc(COC)no3)c3ccccc23)ncc1OC [Example 2-2-8, 4-{[5-methoxy-2-(1-{[3-(methoxymethyl)-1,2,4-oxadiazol-5-yl]methyl}-1H-indazol-3-yl)pyrimidin-4-yl]amino}-N-methylnicotinamide]		> 10000 nM	17 nM
COc1cnc(-c2nn(Cc3cc(C(C)C)no3)c3ccccc23)nc1Nc1ccncc1C(N)=O [Example 2-2-9, 4-[(2-{1-[(3-isopropyl-1,2-oxazol-5-yl)methyl]-1H-indazol-3-yl}-5-methoxypyrimidin-4-yl)amino]nicotinamide]	6.9 nM	3900 nM	
COCc1noc(Cn2nc(-c3ncc(OC)c(Nc4ccncc4C(N)=O)n3)c3ccccc32)n1 [Example 2-2-10, 4-{[5-methoxy-2-(1-{[3-(methoxymethyl)-1,2,4-oxadiazol-5-yl]methyl}-1H-indazol-3-yl)pyrimidin-4-yl]amino}nicotinamide]	4.8 nM	> 10000 nM	
COc1cnc(-c2nn(Cc3cscn3)c3ccccc23)nc1Nc1ccncc1C(N)=O [Example 2-2-11, 4-({5-methoxy-2-[1-(1,3-thiazol-4-ylmethyl)-1H-indazol-3-yl]pyrimidin-4-yl}amino)nicotinamide]	8 nM	8800 nM	
CNC(=O)c1cnccc1Nc1nc(-c2nn(Cc3cc(C(C)C)no3)c3ccccc23)ncc1OC [Example 2-2-12, 4-[(2-{1-[(3-isopropyl-1,2-oxazol-5-yl)methyl]-1H-indazol-3-yl}-5-methoxypyrimidin-4-yl)amino]-N-methylnicotinamide]	5.7 nM	> 10000 nM	
COc1cnc(-c2nn(Cc3nnc(C)o3)c3ccccc23)nc1Nc1ccncc1C(N)=O [Example 2-2-13, 4-[(5-methoxy-2-{1-[(5-methyl-1,3,4-oxadiazol-2-yl)methyl]-1H-indazol-3-yl}pyrimidin-4-yl)amino]nicotinamide]	22 nM	> 10000 nM	
COc1cnc(-c2nn(Cc3nnc(C)o3)c3ccccc23)nc1Nc1ccncc1 [Example 2-2-14, 5-methoxy-2-{1-[(5-methyl-1,3,4-oxadiazol-2-yl)methyl]-1H-indazol-3-yl}-N-(pyridin-4-yl)pyrimidin-4-amine]		> 10000 nM	870 nM
CNC(=O)c1cnccc1Nc1nc(-c2nn(Cc3nnc(C)o3)c3ccccc23)ncc1OC [Example 2-2-15, 4-[(5-methoxy-2-{1-[(5-methyl-1,3,4-oxadiazol-2-yl)methyl]-1H-indazol-3-yl}pyrimidin-4-yl)amino]-N-methylnicotinamide]	99 nM		
CCOC(=O)c1cnccc1Nc1cc(N)nc(-c2nn(Cc3c(C)noc3C)c3ccccc23)n1 [Example 2-3-1, ethyl 4-[(6-amino-2-{1-[(3,5-dimethyl-1,2-oxazol-4-yl)methyl]-1H-indazol-3-yl}pyrimidin-4-yl)amino]pyridine-3-carboxylate]	70 nM	> 10000 nM	
Cc1noc(C)c1Cn1nc(-c2nc(N)cc(Nc3ccncc3C(=O)NCCO)n2)c2ccccc21 [Example 2-4-1, 4-[(6-amino-2-{1-[(3,5-dimethyl-1,2-oxazol-4-yl)methyl]-1H-indazol-3-yl}pyrimidin-4-yl)amino]-N-(2-hydroxyethyl)nicotinamide]	34 nM		
